Results as given in patent publication US7960397B2, “6,9-disubstituted purine derivatives and their use as cosmetics and cosmetic compositions” (Institute of Experimental Botany, Academy of Sciences of …, priority 2007, dated 2011).

Experiments:
[1] = test system: cytokinin-dependent tobacco callus Nicotiana tabacum L. cv. Wisconsin 38; experiment: Cytokinin activity in tobacco callus bioassay; format: cell-based; conditions: for concentration with highest activity: growth of tobacco callus, four weeks of cultivation, tested 10^−8 M to 10^−4 M; for Activity (%) [10^−5 mol · l^−1 BAP = 100%]: increase of fresh callus weight at the concentration with highest activity, 10^−5 M BAP = 100%
excised wheat leaf tips = experiment: Antisenescence test, retention of chlorophyll in excised wheat leaf tips; parameters: species or system Triticum aestivum cv. Hereward; conditions: for activity (%) [10^−4 mol · l^−1 BAP = 100%]: retention of chlorophyll in excised wheat leaf tips at the concentration with highest activity, 10 replicate determinations; for concentration with highest activity: retention of chlorophyll in excised wheat leaf tips, tested range 10^−8 M to 10^−4 M, 96 h in the dark at 25° C.
Method in brief: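 Winter wheat seedlings (Triticum aestivum cv. Hereward) were raised on vermiculite with Knop's solution at 25° C. for 7 days. Tips of the first leaf, 35 mm long (five tips, 100 mg combined), stood in […] of test solution in microtiter wells. After 96 h in the dark at 25° C., chlorophyll was extracted in 80% ethanol at 80° C. and read at 665 nm. Activity is relative to 10^−4 M BAP (100%).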

β-adrenergic receptors = experiment: Isoproterenol-induced cAMP synthesis in rat C6 glioma; format: cell-based; conditions: cellular cAMP, simultaneous addition with isoproterenol, 30 min
Method: Anti-inflammatory activity. The compounds of formula 1 having anti-inflammatory activities can be used as cosmetics for treating inflammation skin disorders as atopic dermatitis, lichen planus, hyperpigmentation and Herpes simplex lesions. From this reason, rat C6 glioma (ATCC No. CCL107) was cultivated as a monolayer in a serum-free chemically defined medium containing Ham's F10-minimal essential medium (1:1 v/v), 2 mM L-glutamine, 1% (v/v) minimal essential medium vitamins (100×), 1% (v/v) minimal essential medium nonessential amino acids (100×), 100U/ml penicillin, […] streptomycin and 30 nM sodium selenite. Incubation was performed at 37° C. in a humidified atmosphere. The assays were performed in the logarithmic growth phase at a density of 2.5×10^5 cells/cm^2. Intracellular cAMP synthesis was induced by addition of […] (−)isoproterenol. After 30 min incubation at 37° C. the medium was removed and the cellular amount of cAMP was determined using the cAMP-enzyme immunoassay Amersham kit. The I50 value was determined from a dose-response curve in duplicate. The effect of the novel 6,9-disubstituted purines was measured after simultaneous addition with isoproterenol.
As P2Y1-like and A2 purinergic receptors, negatively and positively coupled to adenylate cyclase, respectively, are present in rat C6 glioma, it remains to be determined whether the modulation of the synthesis of cAMP is due to the inhibition of the activation of β-adrenergic receptors by isoproterenol, or due to the activation of purinergic receptors.

[2] = test system: Amaranthus caudatus cotyledon/hypocotyl explants; experiment: Amaranthus bioassay (betacyanin content); parameters: species or system Amaranthus caudatus var. atropurpurea; conditions: for concentration with highest activity: betacyanin content after 48 h incubation, tested 10^−8 M to 10^−4 M; for Activity (%) [10^−5 mol · l^−1 BAP = 100%]: betacyanin content at the concentration with highest activity, 10^−5 M BAP = 100%
Method in brief: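 Amaranthus caudatus explants (cotyledons plus hypocotyl) from 72 h dark-grown seedlings were incubated in darkness on medium with 10 mmol Na2HPO4–KH2PO4 pH 6.8, 5 mmol tyrosine and test compound; stock was 10^−3 M in DMSO/water. Betacyanin was measured as A537−A620 and activity expressed relative to 10^−5 M BAP (100%).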

[3] = test system: human diploid fibroblasts (HCA cells, HCA20, HCA40, HCA60); experiment: Senescent cells (β-galactosidase staining) in culture of human fibroblasts; format: cell-based; conditions: for SENESCENT CELLS (%) HCA20: human fibroblasts passage 20 (HCA20); for SENESCENT CELLS (%) HCA40: human fibroblasts passage 40 (HCA40); for SENESCENT CELLS (%) HCA60: human fibroblasts passage 60 (HCA60)
Method in brief: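 Fibroblasts taken at passages 20, 40 and 60 were washed and fixed for 5 min at room temperature in 2% formaldehyde/0.2% glutaraldehyde in PBS. After PBS washes, cells were incubated at 37 °C for β-galactosidase staining.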

[4] = test system: promyelocytic HL-60 leukemia; experiment: In vitro cytotoxicity, Calcein AM assay; conditions: Homo sapiens, HL-60, 72 h, read-out: GI50 HL60
Method: (§1) Because only metabolically active cells cleave Calcein AM, these assays detect viable cells exclusively. The quantity of reduced Calcein AM corresponds to the number of vital cells in the culture.
(§2) The cells were maintained in Nunc/Corning 80 cm^2 plastic tissue culture flasks and cultured in cell culture medium (DMEM with 5 g/l glucose, 2 mM glutamine, 100 U/ml penicillin, 100 mg/ml streptomycin, 10% fetal calf serum and sodium bicarbonate).
(§3) The cell suspensions that were prepared and diluted according to the particular cell type and the expected target cell density (2,500-30,000 cells per well based on cell growth characteristics) were added by pipette (80 ml) into 96-well microtiter plates. Inoculates were allowed a pre-incubation period of 24 hours at 37° C. and 5% CO2 for stabilization. Four-fold dilutions of the intended test concentration were added at time zero in 20 ml aliquots to the microtiter plate wells. Usually, the compound tested was evaluated at six 4-fold dilutions. […] All drug concentrations were examined in duplicate. Incubations of cells with the tested compounds lasted for 72 hours at 37° C., in a 5% CO2 atmosphere and 100% humidity. At the end of the incubation period, the cells were assayed by using Calcein AM. Ten microliters of the stock solution were pipetted into each well and incubated for 1 hour. Fluorescence (FD) was measured with the Labsystem FIA Reader Fluoroscan Ascent (UK).

human osteosarcoma HOS = experiment: In vitro cytotoxicity, Calcein AM assay; conditions: Homo sapiens, 72 h, read-out: GI50 HOS
Method: as §1, §2, §3

mouse fibroblasts NIH3T3 = experiment: In vitro cytotoxicity, Calcein AM assay; conditions: Mus musculus, NIH3T3, 72 h, read-out: GI50 NIH-3T3
Method: as §1, §2, §3

[5] = test system: breast carcinoma cell line MCF-7; experiment: In vitro cytotoxicity, Calcein AM assay; conditions: Homo sapiens, MCF7, 72 h, read-out: GI50 MCF7
Method: as §1, §2, §3

[6] = test system: Human T-lymphoblastic leukemia cell line CEM; experiment: In vitro cytotoxicity, Calcein AM assay; conditions: Homo sapiens, 72 h, read-out: GI50 CEM
Method: as §1, §2, §3

[7] = test system: human myeloid leukemia K-562; experiment: In vitro cytotoxicity, Calcein AM assay; conditions: Homo sapiens, K562, 72 h, read-out: GI50 K-562
Method: as §1, §2, §3

SMILES | concentration with highest activity [1] | Activity (%) [10^−5 mol · l^−1 BAP = 100%] [1] [%] | activity (%) [10^−4 mol · l^−1 BAP = 100%] (excised wheat leaf tips) [%] | concentration with highest activity (excised wheat leaf tips) | Effect (modulation of the activity of β-adrenergic receptors) (β-adrenergic receptors) | concentration with highest activity [2] | Activity (%) [10^−5 mol · l^−1 BAP = 100%] [2] [%] | SENESCENT CELLS (%) HCA20 [3] [%] | SENESCENT CELLS (%) HCA40 [3] [%] | SENESCENT CELLS (%) HCA60 [3] [%] | GI50 [4] [µM] | GI50 (human osteosarcoma HOS) [µM] | GI50 (mouse fibroblasts NIH3T3) [µM] | GI50 [5] [µM] | GI50 [6] [µM] | GI50 [7] [µM]
Oc1ccc(CNc2ncnc3c2ncn3C2CCCCO2)cc1O (stereo not drawn) | 10^−5 mol · l^−1 | 61 | 71.3 | 10^−4 mol · l^−1 | 1.7-fold fold activation | 10^−4 mol · l^−1 | 52 | 3 | 4 | 15 | – | – | – | – | – | –
COc1cc(O)cc(OC)c1CNc1ncnc2c1ncn2C1CCCCO1 (stereo not drawn) | 10^−5 mol · l^−1 | 43 | 22 | 10^−4 mol · l^−1 | 1.3-fol fold activation | 10^−4 mol · l^−1 | 12 | 4 | 5 | 21 | – | – | – | – | – | –
COc1cc(CNc2ncnc3c2ncn3C2CCCCO2)ccc1O (stereo not drawn) | 10^−6 mol · l^−1 | 62 | 55 | 10^−4 mol · l^−1 | 1.6-fold fold activation | 10^−4 mol · l^−1 | 57 | 4 | 4 | 19 | – | – | – | – | – | –
Oc1ccc(CNc2ncnc3c2ncn3C2CCCCO2)cc1 (stereo not drawn) [6-(4-hydroxybenzylamino)-9-(tetrahydropyran-2-yl)purine] | 10^−5 mol · l^−1 | 36 | 10.1 | 10^−4 mol · l^−1 | 1.8-fold fold activation | 10^−4 mol · l^−1 | 25.3 | 5 | 5 | 16 | > 167 | > 167 | > 167 | > 167 | > 167 | –
c1ccc(CNc2ncnc3nc[nH]c23)cc1 [benzylamino / H, 6-benzylaminopurine, reference compound] | 10^−6 mol · l^−1 | 100 | 100 | 10^−4 mol · l^−1 | – | 10^−5 mol · l^−1 | 100 | – | – | – | > 167 | > 167 | > 167 | 166 | > 167 | 139
